Results as given in patent US6362369B1, “Phthalic acid diamide derivatives fluorine-containing aniline compounds as starting material, agricultural and horticultural insecticides, and a method for application of the insecticides” (Nihon Nohyaku Co., Ltd., priority 1997, dated 2002).

What was measured:
Assay type in all cases: in vivo
[1] = system: diamondback moth (Plutella xylostella); experiment: Insecticidal effect on diamondback moth (Test Example 1); details: for Insecticidal effect on diamondback moth (Test Example 1), judged grade: mortality judged according to the criterion shown in Test Example 1
Outline: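 Oviposition by adults on Chinese cabbage seedling; immersion; air-dry; 25° C room. Count of hatched larvae at day 6 post-immersion → mortality → effect graded by criterion. Triplicate, 10 insects/group.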

[2] = system: common cutworm (Spodoptera Litura); experiment: Insecticidal effect on common cutworm (Test Example 2); details: 500 ppm, 25° C.; for Insecticidal effect, Test Example 2: cabbage leaf immersed; for Insecticidal effect, Test Example 2 / Insecticidal effect on common cutworm (Test Example 2), judged grade: eight days after inoculation; for Insecticidal effect on common cutworm (Test Example 2), judged grade: second-instar larvae
Outline: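 2nd-instar larvae on air-dried treatment, closed dish, 25° C; dead/alive counted at day 8. Mortality calculated, graded by criterion. 3 × 10 insects.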

[3] = system: rice leafroller (Cnaphalocrocis medinalis); experiment: Insecticidal effect on rice leafroller (Test Example 3); details: 500 ppm, 25° C., humidity 70%; for Insecticidal effect, Test Example 3: rice lamina immersed; for Insecticidal effect, Test Example 3 / Insecticidal effect on rice leafroller (Test Example 3), judged grade: four days after inoculation; for Insecticidal effect on rice leafroller (Test Example 3), judged grade: third-instar larvae
Outline: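 Insecticidal effect is judged by a predefined criterion from dead/alive counts four days after infesting air-dried lamina with third-instar larvae, kept on moistened filter paper at 25° C, 70% humidity.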

[4] = diamondback moth, mortality judged by criterion of Test Example 1
[5] = common cutworm second-instar larvae
[6] = rice leafroller third-instar larvae
[7] = diamondback moth, judged by the mortality criterion of Test Example 1
[8] = second-instar larvae of common cutworm
[9] = third-instar larvae of rice leafroller

Row | Structure (SMILES) | Insecticidal effect, Test Example 1 [1, 4] | Insecticidal effect, Test Example 2 [2, 5] | Insecticidal effect, Test Example 3 [3, 6] | Insecticidal effect on diamondback moth (Test Example 1), judged grade [1] | Insecticidal effect on common cutworm (Test Example 2), judged grade ([2]; cabbage leaf dip) | Insecticidal effect on rice leafroller (Test Example 3), judged grade ([3]; rice lamina dip) | further results
1 | Cc1cc(C(F)(F)C(F)(F)F)ccc1NC(=O)c1cccc(Cl)c1C(=O)NC(C)(C)Cc1ccccc1 [compound 1418] | A (100) | A (100) | A (100) | – | – | – | –
2 | Cc1cc(Cl)ccc1NC(=O)c1cccc(Cl)c1C(=O)NC(C)(C)C [compound 937] | – | – | – | A (100) | A (100) | A (100) | –
3 | Cc1ccc(F)cc1NC(=O)c1c(F)cccc1C(=O)NC(C)C [compound 549] | – | – | – | A (100) | A (100) | D (79-50) | –
4 | Cc1cc(C(F)(F)C(F)(F)F)ccc1NC(=O)c1ccc(Cl)cc1C(=O)NC(C)C [compound 1277] | A (100) | A (100) | A (100) | – | – | – | –
5 | Cc1cc(OC(F)(F)C(F)F)c(Cl)cc1NC(=O)c1c(Cl)cccc1C(=O)NC(C)C [compound 246] | – | – | – | – | – | – | Insecticidal effect, Test Example 1 [1, 7]: A (100); Insecticidal effect, Test Example 2 [2, 8]: B (99-90); Insecticidal effect, Test Example 3 [3, 9]: B (99-90)
6 | CC(C)NC(=O)c1c(F)cccc1C(=O)Nc1ccc(C(F)(F)F)cc1Cl [compound 504] | – | – | – | A (100) | A (100) | A (100) | –
7 | CC(C)NC(=O)c1c(F)cccc1C(=O)Nc1ccc(OC(F)F)cc1C(F)(F)F [compound 527] | – | – | – | A (100) | A (100) | A (100) | –
8 | CC(C)NC(=O)c1c(Cl)cccc1C(=O)Nc1ccc(C(F)(F)C(F)(F)F)cc1 [compound 893] | – | – | – | A (100) | A (100) | A (100) | –
9 | Cc1cc(OC(F)(F)C(F)Cl)ccc1NC(=O)c1cccc(Br)c1C(=O)NC(C)C (stereo not drawn) [compound 292] | – | – | – | – | – | – | Insecticidal effect, Test Example 1 [1, 7]: A (100); Insecticidal effect, Test Example 2 [2, 8]: A (100); Insecticidal effect, Test Example 3 [3, 9]: A (100)
10 | COc1cccc(NC(=O)c2cccc([N+](=O)[O-])c2C(=O)NC(C)C)c1C [compound 687] | – | – | – | A (100) | D (79-50) | D (79-50) | –
11 | CC(C)NC(=O)c1cccc(Br)c1C(=O)Nc1ccc(C(F)(F)F)cc1 [compound 301] | – | – | – | – | – | – | Insecticidal effect, Test Example 1 [1, 7]: A (100); Insecticidal effect, Test Example 2 [2, 8]: A (100); Insecticidal effect, Test Example 3 [3, 9]: D (79-50)
12 | Cc1cc(C(F)(F)C(F)(F)F)ccc1NC(=O)c1c(I)cccc1C(=O)NC(C)(C)C [compound 943] | A (100) | C (89-80) | A (100) | – | – | – | –
13 | CC(C)NC(=O)c1c(C(=O)Nc2ccc(SC(F)(F)C(F)(F)Br)cc2)cccc1[N+](=O)[O-] [compound 628] | – | – | – | A (100) | B (99-90) | A (100) | –
14 | Cc1cc(OC(F)(F)C(F)F)ccc1NC(=O)c1cccc(I)c1C(=O)NC(C)(C)C [compound 1062] | A (100) | A (100) | A (100) | – | – | – | –
15 | Cc1cc(OC(F)F)ccc1NC(=O)c1cccc(F)c1C(=O)NC(C)C [compound 500] | – | – | – | A (100) | B (99-90) | A (100) | –
16 | Cc1cc(C(F)(C(F)(F)F)C(F)(F)F)cc(C)c1NC(=O)c1cccc(I)c1C(=O)NC(C)C [compound 1716] | – | – | – | – | – | – | Insecticidal effect (Test Example 1), judged from mortality ([1]; diamondback moth, judged by the criterion of Test Example 1): A (100); Insecticidal effect (Test Example 2), judged from mortality ([2]; cabbage leaf dip, second-instar larvae of common cutworm, 8 days after inoculation): A (100); Insecticidal effect (Test Example 3), judged from mortality ([3]; rice lamina dip, third-instar larvae of rice leafroller, 4 days after inoculation): A (100)

Row | Structure (SMILES) | Insecticidal effect, Test Example 1 [1, 4] | Insecticidal effect, Test Example 2 [2, 5] | Insecticidal effect, Test Example 3 [3, 6] | Insecticidal effect on diamondback moth (Test Example 1), judged grade [1] | Insecticidal effect on common cutworm (Test Example 2), judged grade ([2]; cabbage leaf dip) | Insecticidal effect on rice leafroller (Test Example 3), judged grade ([3]; rice lamina dip) | further results
17 | Cc1cc(Sc2ccc(Cl)cc2)ccc1NC(=O)c1ccccc1C(=O)NC(C)C [compound 77] | – | – | – | – | – | – | Insecticidal effect, Test Example 1 [1, 7]: A (100); Insecticidal effect, Test Example 2 [2, 8]: C (89-80); Insecticidal effect, Test Example 3 [3, 9]: A (100)
18 | Cc1cc(C(F)(F)C(F)(F)F)ccc1NC(=O)c1cccc(Cl)c1C(=O)NCc1ccccn1 [compound 1355] | A (100) | A (100) | A (100) | – | – | – | –
19 | Cc1ccc(F)cc1NC(=O)c1cccc(F)c1C(=O)NC(C)C [compound 493] | – | – | – | A (100) | A (100) | A (100) | –
20 | Cc1cc(C(F)(F)C(F)(F)F)ccc1NC(=O)c1ccc(Cl)c(Cl)c1C(=O)NC(C)C [compound 1222, 3,4-dichloro-N^1-(4-pentafluoroethyl-2-methylphenyl)-N^2-isopropylphthalic acid diamide] | A (100) | A (100) | A (100) | – | – | – | –
21 | Cc1cc(Cl)ccc1NC(=O)c1cccc(Br)c1C(=O)NC(C)C [compound 267] | – | – | – | – | – | – | Insecticidal effect, Test Example 1 [1, 7]: A (100); Insecticidal effect, Test Example 2 [2, 8]: A (100); Insecticidal effect, Test Example 3 [3, 9]: A (100)
22 | Cc1cc(OC(F)(F)F)ccc1NC(=O)c1cccc([N+](=O)[O-])c1C(=O)NC(C)C [compound 710] | – | – | – | A (100) | C (89-80) | A (100) | –
23 | Cc1cc(OC(F)(F)F)ccc1NC(=O)c1ccc(Cl)c(Cl)c1C(=O)NC(C)C [compound 1221] | A (100) | A (100) | A (100) | – | – | – | –
24 | CC(C)(C)NC(=O)c1c(I)cccc1C(=O)Nc1ccc(OC(F)(F)F)cc1 [compound 940] | A (100) | A (100) | A (100) | – | – | – | –
25 | Cc1cc(Oc2ncc(C(F)(F)F)cc2Cl)ccc1NC(=O)c1ccccc1C(=O)NC(C)C [compound 79] | – | – | – | – | – | – | Insecticidal effect, Test Example 1 [1, 7]: A (100); Insecticidal effect, Test Example 2 [2, 8]: A (100); Insecticidal effect, Test Example 3 [3, 9]: D (79-50)
26 | COc1ccc(NC(=O)c2cccc(Cl)c2C(=O)NC(C)C)c(C)c1C [compound 124] | – | – | – | – | – | – | Insecticidal effect, Test Example 1 [1, 7]: A (100); Insecticidal effect, Test Example 2 [2, 8]: A (100); Insecticidal effect, Test Example 3 [3, 9]: A (100)
27 | CCOCCNC(=O)c1c(I)cccc1C(=O)Nc1ccc(C(F)(F)C(F)(F)F)cc1C [compound 983] | A (100) | A (100) | A (100) | – | – | – | –
28 | Cc1cc(C(F)(F)C(F)(F)F)ccc1NC(=O)c1cccc(Cl)c1C(=O)NC(C)C [compound 128] | – | – | – | – | – | – | Insecticidal effect, Test Example 1 [1, 7]: A (100); Insecticidal effect, Test Example 2 [2, 8]: D (79-50); Insecticidal effect, Test Example 3 [3, 9]: A (100)
29 | CC(C)NC(=O)c1c(I)cccc1C(=O)Nc1ccc(F)cc1F [compound 1055] | A (100) | A (100) | A (100) | – | – | – | –
30 | CCc1cc(Cl)ccc1NC(=O)c1cccc([N+](=O)[O-])c1C(=O)NC(C)C [compound 667] | – | – | – | A (100) | A (100) | A (100) | –
31 | CCC(CO)NC(=O)c1c(Cl)cccc1C(=O)Nc1ccc(C(F)(F)C(F)(F)F)cc1C (stereo not drawn) [compound 1316] | A (100) | A (100) | A (100) | – | – | – | –
